Values of other authors, collected in patent US20260053818A1, “PHARMACEUTICAL FORMULATION FOR THE TREATMENT OF INFLAMMATORY CHANGES TO THE RECTUM” (Dr. Falk Pharma GmbH, priority 2015, published 2026).
≈ marks a conversion by molar mass, not a printed value.

Conditions: Merck Index

Which solubility in water does the source give for `CCCC1O[C@@H]2C[C@H]3[C@@H]4CCC5=CC(=O)C=C[C@]5(C)[C@H]4[C@@H](O)C[C@]3(C)[C@]2(C(=O)CO)O1` (stereo partly shown) [budesonide] here?
Its solubility in water is 14 µg/mL (≈ 32.5 µM).
